Data published in patent US11306063B2, “Heterocyclic naphthoquinones derivatives for use in the treatment of cancers including Cushing disease” (Commissariat a l'Energie Atomique et aux Energies …, priority 2016, dated 2022).
pEC50, pIC50: −log10 of the molar value.

How the values were obtained:
LNCaP cells spheroids = assay: Cell death in 3D spheroids (PI/Hoechst, high content analysis); type: cell-based, human; conditions: 1 to 3 days, increasing concentration, FIG. 2C
Protocol: Spheroids were then stained with Hoechst and Propidium Iodure (PI). The area of each staining was calculated via automated imaging. Histograms represent the medium value of the PI/Hoechst areas ratio calculated on 3 to 6 independent spheroids. Error bars indicate the standard deviation between technical replicates. One out of three experiments is presented.
For 3D cell culture (spheroids), the LNCaP-FGC (fast growing colony) cell line (ATCC #CRL1740) was used. This cell line derives from the LNCaP cell line (Human Prostatic Carcinoma) which shares all the main characteristics, including its androgen sensitivity, described for the parental line and HCT116 (ATCC #CCL 247) (Human Colorectal Carcinoma) cell lines. […]
An automated imaging protocol was designed to monitor the induction of cell death in the spheroids by high content analysis methods (HCA). 3 hours before reading, cells were labeled with vital Hoechst (400 ng/ml) (Thermo Fischer Scientific #33342) and Propidium Iodide (PI) at 1 μg/ml (Sigma Aldrich #P4864) as markers of cell nuclei and cell death respectively. Images of PI and Hoechst fluorescence were acquired using the automated microscope ArrayScan^VTI (ThermoScientific) and 5 times magnification. […]

USP2^CD = molecular target: T1, USP2^CD (Homo sapiens, UniProt O75604); assay: tri-Ub^K63 chains hydrolysis by USP2^CD (western blot); type: biochemical; conditions: FIG. 1C, at the indicated concentrations
T1 construct: The purified catalytic domain of USP2 (USP2^CD, in-house purified); His; made in house; host or cells: E. coli BL21 Gold
T1 sequence (O75604 267-599 limits assumed): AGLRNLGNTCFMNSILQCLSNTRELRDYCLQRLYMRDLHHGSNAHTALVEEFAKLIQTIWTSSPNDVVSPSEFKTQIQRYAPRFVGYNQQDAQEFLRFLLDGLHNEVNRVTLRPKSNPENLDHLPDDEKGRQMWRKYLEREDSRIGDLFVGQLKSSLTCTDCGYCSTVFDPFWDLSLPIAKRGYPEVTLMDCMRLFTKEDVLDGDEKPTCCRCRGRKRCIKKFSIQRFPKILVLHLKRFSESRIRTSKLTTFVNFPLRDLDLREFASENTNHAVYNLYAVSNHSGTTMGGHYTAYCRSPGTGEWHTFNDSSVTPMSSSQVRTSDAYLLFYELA
Protocol: The degradation of purified lysine 63-linked tree-Ubiquitin chains (triUb^K63) over a 90 minutes period of time was visualized by western blot analysis. […] Enzymatic assay was performed in a HEPES buffer (50 mM pH7.4, 150 mM NaCl, 0.5 mM EDTA, 2% glycerol, 0.2 mg/ml BSA, 5 mMDTT).

[1] = system: all cancerous cells tested; assay: Cytotoxicity assay, summary over all cancerous cells tested; type: cell-based; conditions: Homo sapiens; 48 h treatment; read-out: EC50 of cell death, range over all cancerous cells tested
Protocol: (§1) For cytotoxicity assays, cells were seeded in 96-well microplates 24 hours before the addition of increasing concentrations of each compound in the culture medium. Cell viability was analyzed 48 hours following addition of each compound through the monitoring of mitochondrial […] activity using PrestoBlue® Cell Viability Reagent (Invitrogen; #A-13261). Paclitaxel was used as a control which is cytotoxic on various cancerous cells although not on chemoresistant MESSA DX5 lineage.

HCT116 cells = assay: Cytotoxicity assay (PrestoBlue cell viability), HCT116; type: cell-based; conditions: Homo sapiens, HCT-116; 48 hours treatment
Protocol: Messa, Messa DX5, HCT116, HEK-293, PC-3, LNCaP, HCC827 and H1975 cell lines are issued from the American Type Culture Collection (ATCC).
Messa, Messa DX5 and HCT116 were maintained in McCoy's supplemented with 10% fetal bovine serum, and 1% penicillin/streptomycin. PC-3, LNCaP cells were maintained in RPMI medium supplemented with 10% fetal bovine serum, and 1% penicilin/streptomycin and in the case of Messa DX5: 500 nM Doxorubicin was added to maintain selection pressure. HEK293 were maintained in DMEM medium supplemented with 10% fetal bovine serum, and 1% penicillin/streptomycin. Cells were maintained at 37° C. with 5% CO2, 95% air, and humid atmosphere. In the case of hormonal dependent LNCaP cells, 2 μM DiHydroTestosterone (DHT) was added or not—depending on the type of biological assay—for the same incubation period as compounds.
as §1

USP2-FL = USP2-FL (Homo sapiens, UniProt O75604); assay: biochemical
Sequence of USP2-FL (O75604 whole entry): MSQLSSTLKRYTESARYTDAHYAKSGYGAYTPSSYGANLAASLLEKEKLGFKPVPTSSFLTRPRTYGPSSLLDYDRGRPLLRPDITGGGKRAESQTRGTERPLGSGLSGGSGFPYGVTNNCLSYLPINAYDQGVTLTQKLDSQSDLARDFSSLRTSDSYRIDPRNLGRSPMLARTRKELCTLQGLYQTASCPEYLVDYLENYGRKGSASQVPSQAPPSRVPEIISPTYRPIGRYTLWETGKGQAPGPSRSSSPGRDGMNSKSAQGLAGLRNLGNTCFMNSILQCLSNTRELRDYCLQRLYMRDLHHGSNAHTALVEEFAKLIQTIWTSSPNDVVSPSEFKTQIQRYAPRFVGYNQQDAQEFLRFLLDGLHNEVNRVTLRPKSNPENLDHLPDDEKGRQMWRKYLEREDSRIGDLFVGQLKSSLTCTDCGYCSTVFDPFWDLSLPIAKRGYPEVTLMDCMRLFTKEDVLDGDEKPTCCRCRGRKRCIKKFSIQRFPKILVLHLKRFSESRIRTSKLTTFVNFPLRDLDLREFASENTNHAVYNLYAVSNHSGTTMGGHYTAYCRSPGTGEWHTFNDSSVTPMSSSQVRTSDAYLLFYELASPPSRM

[2] = system: MDA-MB231 triple negative breast cancer cells; assay: Wounding assay, MDA-MB231; type: cell-based; conditions: from 1 μM concentration; mitomycine 2 μg/ml; 24 hours
Protocol: In addition the migratory capacity of two additional triple negative breast cancer cells lines: the metastatic MDA-MB231 and BT-549 showing high migratory capacity was analyzed in a classical wound assay.
BT-549, MDA-MB231 cell lines were issued from the American Type Culture Collection (ATCC). For wounding assays, cells were seeded in 24-well microplates (Culture Insert 21, ref 250210, Ibidi®). […] Cell spreading was then visualized during 24 hours by videomicroscopy (1 acquisition each 30 min). A representative picture of 3 is presented at 0 and 12 hours of drug treatment out. In Graphs, curves represents the empty surface (devoid of cells) between the two cell layers (delimited by using Image J software).

SMILES | cell death in spheroids (PI area over Hoechst area) (LNCaP cells spheroids) | inhibition of tri-Ub^K63 chains hydrolysis by USP2^CD (USP2^CD) | pEC50 [1] | pEC50 (HCT116 cells) | pIC50 (USP2-FL) | cell migration in wounding assay, MDA-MB231 [2]
CCCCS(=O)(=O)Cc1nc2c(o1)C(=O)c1ccccc1C2=O [PCR9301] | to an ever higher extend | full inhibition | 5.46 to 6.00 | 5.77 | – | –
CCCCS(=O)(=O)Cc1nc2c(nc1CS(=O)(=O)CCCC)C(=O)c1ccccc1C2=O [PCR6236] | significant induction of a tumorous cells death | – | 5.46 to 6.00 | 5.89 | 6.70 | prevents triple negative breast cancer cell migration
